Where two headings read alike, the source gives them in different places.
Assays:
[1] = target: T1, soluble guanylate cyclase (sGC) (Homo sapiens (Human), UniProt Q02108+Q02153); experiment: sGC-HEK-cGMP assay run in the absence of SNP (HEK WC assay); type: cell-based; conditions: compound at 30 μM, absence of SNP
Method: Human embryonic kidney cells (HEK293), endogenously expressing soluble guanylate cyclase (sGC), were used to evaluate the activity of test compounds. Compounds stimulating the sGC receptor should cause an increase in the intracellular concentration of cGMP. HEK 293 cells were seeded in Dulbecco's Modification of Eagle's Medium supplemented with fetal bovine serum (10% final) and L-glutamine (2 mM final) in a 200 μL volume at a density of 1×10^5 cells/well in a poly-D-lysine coated 96 well flat bottom plate and grown overnight at 37° C. Medium was aspirated and cells were washed with 1× Hank's Buffered Saline Salt Solution (200 μL). Cells were then incubated for 15 minutes at 37° C. with 0.5 mM 3-isobutyl-1-methylxanthine (200 μL). Test article was then added to the assay mixture (2 μL) and incubated at 37° C. for 10 minutes. After the 10 minute incubation, the assay mixture was aspirated and 0.1M HCl (200 μL) was added to the cells. The plate was incubated at 4° C. for 30 minutes in the 0.1M HCl to stop the reaction and lysed the cells. The plates were then centrifuged at 1,200 g for 5 minutes at room temperature. Supernatants were collected and transferred to a new flat bottom 96 well plate for analysis. Vehicle controls were carried out using DMSO (1%). A known sGC stimulator, BAY 41-2272, was used as the positive control. Samples were diluted with an equal volume of 1 M Ammonium Acetate (pH 7) to neutralize samples for better chromatography. A 2× cGMP standard curve was prepared in 0.1 M HCl and then diluted with an equal volume of 1 M Ammonium Acetate, with the following final concentrations in nM: 1024, 512, 256, 128, 64, 32, 16, 8, 4, 2, 1. cGMP concentrations were determined from each sample using the LC/MS conditions (Table 2 below) and calculated standard curve. EC50 values were calculated from concentration-response curves generated with GraphPad Prism Software.

[2] = target: T1, soluble guanylate cyclase (sGC); experiment: sGC-HEK-cGMP assay run with SNP incubation (HEK WC assay); type: cell-based; conditions: for HEK WC Assay (fold increase at 30 μM in the presence of 10 μM SNP): compound at 30 μM; for EC50: in the presence of 10 uM SNP
How it was run: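 EC50 values derive from concentration-response curves of intracellular cGMP in HEK293 cells, which express sGC endogenously. Compound and sodium nitroprusside were co-incubated 10 min at 37 °C after a 15-min 0.5 mM IBMX step, with 0.1 M HCl lysis and 1% DMSO vehicle.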

[3] = read-out: HEK WC Assay (% Emax at 1 μM with 10 uM SNP)
[4] = read-out: HEK WC Assay (% Emax at 10 μM with 10 uM SNP)
[5] = read-out: HEK WC Assay (% Emax at 30 μM with 10 uM SNP)

T1 sequence (Q02153 whole entry): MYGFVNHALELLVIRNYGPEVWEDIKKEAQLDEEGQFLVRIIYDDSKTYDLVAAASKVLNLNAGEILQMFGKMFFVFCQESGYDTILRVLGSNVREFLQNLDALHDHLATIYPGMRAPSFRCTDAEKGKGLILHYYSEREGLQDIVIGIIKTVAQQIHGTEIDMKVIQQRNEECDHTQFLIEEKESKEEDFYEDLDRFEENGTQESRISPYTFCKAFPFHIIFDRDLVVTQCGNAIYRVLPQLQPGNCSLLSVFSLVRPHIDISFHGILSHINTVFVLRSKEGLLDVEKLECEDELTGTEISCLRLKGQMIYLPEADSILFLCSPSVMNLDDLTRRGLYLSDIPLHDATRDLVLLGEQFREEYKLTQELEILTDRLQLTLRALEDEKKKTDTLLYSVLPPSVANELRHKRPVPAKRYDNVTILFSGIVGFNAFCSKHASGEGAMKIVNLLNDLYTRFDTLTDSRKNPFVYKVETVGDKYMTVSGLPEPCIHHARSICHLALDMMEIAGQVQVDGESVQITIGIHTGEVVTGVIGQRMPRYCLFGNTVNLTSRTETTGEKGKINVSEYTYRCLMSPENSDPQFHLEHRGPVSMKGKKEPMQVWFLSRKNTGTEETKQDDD
T1 sequence (Q02108 whole entry): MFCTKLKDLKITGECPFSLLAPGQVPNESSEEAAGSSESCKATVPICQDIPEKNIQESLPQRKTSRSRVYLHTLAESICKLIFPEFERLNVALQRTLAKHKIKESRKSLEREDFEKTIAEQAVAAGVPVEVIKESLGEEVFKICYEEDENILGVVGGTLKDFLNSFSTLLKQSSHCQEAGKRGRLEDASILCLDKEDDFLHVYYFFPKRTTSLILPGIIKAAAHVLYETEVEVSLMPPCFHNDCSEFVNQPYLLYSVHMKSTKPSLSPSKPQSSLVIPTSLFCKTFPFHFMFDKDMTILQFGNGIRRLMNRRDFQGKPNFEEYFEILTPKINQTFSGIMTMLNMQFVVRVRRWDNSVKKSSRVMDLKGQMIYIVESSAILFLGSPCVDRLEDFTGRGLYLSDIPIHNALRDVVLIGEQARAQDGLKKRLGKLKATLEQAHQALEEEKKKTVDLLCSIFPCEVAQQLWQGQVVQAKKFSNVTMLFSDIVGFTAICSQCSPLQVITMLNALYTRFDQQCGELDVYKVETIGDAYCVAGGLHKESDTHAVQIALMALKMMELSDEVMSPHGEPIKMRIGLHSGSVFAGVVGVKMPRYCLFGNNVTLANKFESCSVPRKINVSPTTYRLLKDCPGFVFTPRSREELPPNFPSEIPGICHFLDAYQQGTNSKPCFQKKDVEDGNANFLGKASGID

HEK WC Assay (fold increase at 30 μM in the absence of SNP) [1] | HEK WC Assay (fold increase at 30 μM in the presence of 10 μM SNP) [2] | EC50 [2] [µM] | Emax [2, 3] [%] | Emax [2, 4] [%] | Emax [2, 5] [%] | SMILES
C (C = 2 to <5 fold increase) | E (E = 10 to <20 fold increase) | < 20 | 20 to 40 | 40 to 60 | 80 to 100 | CC(C)(C)C(=O)Nc1cnc(-c2cc(-c3ncco3)n(Cc3ccccc3F)n2)nc1N [Compound I-191]
B (B = 1 to <2 fold increase) | C (C = 2 to <5 fold increase) |  |  | 0 to 10 | 0 to 10 | CC(=O)Nc1c(N)nc(-c2cc(-c3ccon3)n(Cc3ccccc3F)n2)nc1N [Compound I-141]
D (D = 5 to <10 fold increase) | E (E = 10 to <20 fold increase) | < 20 | 20 to 40 | 60 to 80 | 60 to 80 | Nc1nc(-c2cc(-c3ccon3)n(Cc3ccccc3F)n2)ncc1NC(=O)[C@@H]1CCCN1C(=O)C(F)(F)F [Compound I-219]
C (C = 2 to <5 fold increase) | D (D = 5 to <10 fold increase) | 60 to 100 | 0 to 10 | 10 to 20 | 20 to 40 | OCCc1cnc(-c2cc(-c3ccon3)n(Cc3ccccc3F)n2)nc1O [Compound I-210]
D (D = 5 to <10 fold increase) | E (E = 10 to <20 fold increase) | < 20 | 40 to 60 | 40 to 60 | 60 to 80 | Nc1nc(-c2cc(-c3ccon3)n(Cc3ccccc3F)n2)ncc1NC(=O)C1(C(F)(F)F)CCC1 [Compound I-243]
E (E = 10 to <20 fold increase) | E (E = 10 to <20 fold increase) | < 20 | 60 to 80 | 100 to 120 | 80 to 100 | Nc1nc(-c2cc(-c3ccon3)n(Cc3ccccc3F)n2)ncc1NC(=O)c1cccc(F)c1 [Compound I-171]
E (E = 10 to <20 fold increase) | D (D = 5 to <10 fold increase) | < 20 | 60 to 80 | 100 to 120 | 80 to 100 | Cc1cccc(C(=O)Nc2cnc(-c3cc(-c4ccon4)n(Cc4ccccc4F)n3)nc2N)c1 [Compound I-183]
C (C = 2 to <5 fold increase) | E (E = 10 to <20 fold increase) |  |  | 40 to 60 | 40 to 60 | Oc1nc(-c2cc(-c3ccon3)n(Cc3ccccc3F)n2)ncc1-c1ccncc1 [Compound I-163]
D (D = 5 to <10 fold increase) | E (E = 10 to <20 fold increase) | < 20 |  | 20 to 40 | 40 to 60 | Fc1ccccc1Cn1nc(-c2ncccn2)cc1-c1ccco1 [Compound I-306]
C (C = 2 to <5 fold increase) | E (E = 10 to <20 fold increase) | 20 to 40 | 10 to 20 | 40 to 60 | 40 to 60 | Oc1nc(-c2cc(-c3ncco3)n(Cc3ccccc3F)n2)ncc1F [Compound I-197]
F (F = 20 to <30 fold increase) | F (F = 20 to <30 fold increase) | < 20 | 40 to 60 | 60 to 80 | 60 to 80 | C/C=C(\C)C(=O)Nc1cnc(-c2cc(-c3ccon3)n(Cc3ccccc3F)n2)nc1N [Compound I-227]
B (B = 1 to <2 fold increase) | D (D = 5 to <10 fold increase) | 60 to 100 | 0 to 10 | 10 to 20 | 20 to 40 | Cc1nc(-c2cc(-c3ccon3)n(Cc3ccccc3F)n2)nc(O)c1F [Compound I-203]
C (C = 2 to <5 fold increase) | C (C = 2 to <5 fold increase) |  |  | 0 to 10 | 0 to 10 | Fc1ccccc1Cn1nc(-c2ccccn2)cc1-c1cccc(Br)n1 [Compound I-313, 2-Bromo-6-(1-(2-fluorobenzyl)-3-(pyridin-2-yl)-1H-pyrazol-5-yl)pyridine]
C (C = 2 to <5 fold increase) | E (E = 10 to <20 fold increase) | 20 to 40 | 10 to 20 | 20 to 40 | 40 to 60 | Fc1cccc(F)c1Cn1nc(-c2ncccn2)cc1-c1ccon1 [Compound I-199]
B (B = 1 to <2 fold increase) | C (C = 2 to <5 fold increase) |  |  | 0 to 10 | 0 to 10 | Fc1ccccc1Cn1nc(-c2ccccn2)cc1-c1cncs1 [Compound I-311]
D (D = 5 to <10 fold increase) | G (G = 30 to <40 fold increase) | < 20 | 60 to 80 | 80 to 100 | 100 to 120 | Nc1nc(-c2cc(-c3ccon3)n(Cc3ccccc3F)n2)ncc1NC(=O)CCCCl [Compound I-167]
B (B = 1 to <2 fold increase) | B (B = 1 to <2 fold increase) |  | 0 to 10 | 0 to 10 |  | O=[N+]([O-])c1cnc(-c2cc(-c3ccon3)n(Cc3ccccc3F)n2)nc1O [Compound I-170]
D (D = 5 to <10 fold increase) | E (E = 10 to <20 fold increase) | < 20 | 20 to 40 | 40 to 60 | 40 to 60 | Oc1nc(-c2cc(-c3ccon3)n(Cc3ccccc3F)n2)ncc1Br [Compound I-192]
E (E = 10 to <20 fold increase) | E (E = 10 to <20 fold increase) | < 20 | 60 to 80 | 80 to 100 | 100 to 120 | Nc1nc(-c2cc(-c3ccon3)n(Cc3ccccc3F)n2)ncc1NC(=O)c1ccon1 [Compound I-175]
C (C = 2 to <5 fold increase) | E (E = 10 to <20 fold increase) | 20 to 40 | 10 to 20 | 20 to 40 | 40 to 60 | CC(C)(O)C(=O)Nc1cnc(-c2cc(-c3ccon3)n(Cc3ccccc3F)n2)nc1N [Compound I-209]
C (C = 2 to <5 fold increase) | E (E = 10 to <20 fold increase) | 100 to 300 | 0 to 10 | 10 to 20 | 10 to 20 | Nc1nc(-c2cc(-c3ccon3)n(Cc3ccccc3F)n2)ncc1NCc1ccccc1 [Compound I-223]
E (E = 10 to <20 fold increase) | E (E = 10 to <20 fold increase) | < 20 | 60 to 80 | 80 to 100 | 80 to 100 | Nc1nc(-c2cc(-c3ccon3)n(Cc3ccccc3F)n2)ncc1NC(=O)c1ccc(Cl)cc1 [Compound I-182]
D (D = 5 to <10 fold increase) | E (E = 10 to <20 fold increase) | < 20 | 40 to 60 | 80 to 100 | 80 to 100 | Nc1nc(-c2cc(-c3ccon3)n(Cc3ccccc3F)n2)ncc1NC(=O)c1cocn1 [Compound I-180]
D (D = 5 to <10 fold increase) | E (E = 10 to <20 fold increase) | 20 to 40 | 20 to 40 | 20 to 40 | 40 to 60 | Nc1nc(-c2cc(-c3ccon3)n(Cc3ccccc3F)n2)ncc1NC(=O)c1ccccc1OC(F)(F)F [Compound I-211]
B (B = 1 to <2 fold increase) | B (B = 1 to <2 fold increase) |  |  |  |  | Oc1cc(-c2cccnc2)nc(-c2cc(-c3ccon3)n(Cc3ccccc3F)n2)n1 [Compound I-300]
